Experimental data reported in patent US12533377B2 (OXYMO TECHNOLOGIES INC., priority 2016, dated 2026).
Where two headings read alike, the source gives them in different places. Marks after values point to notes of the source that are not given here.

Tests used:
[1] = system: HSV-1; assay: Model 1: Mixture 1 on cells infected with HSV-1, qPCR of viral genome in BHK-21; format: cell-based, Herpes simplex 1
Text: (§1) Symp. Quant. […] Model 1:

[2] = system: HSV-1; assay: Model 2: Mixture 1 on cells not yet infected with HSV-1, qPCR of viral genome in BHK-21; format: cell-based, Herpes simplex 1
Text: as §1

[3] = system: HSV-1; assay: Model 3: Mixture 1 on cells not yet infected and on free HSV-1, qPCR of viral genome in BHK-21; format: cell-based, Herpes simplex 1
Text: as §1

[4] = system: HSV-1; assay: Model 4: Mixture 1 on HSV-1 before infection, qPCR of viral genome in BHK-21; format: cell-based, Herpes simplex 1
Text: as §1

[5] = system: BHK-21 line; assay: Model 1: cytotoxicity on the BHK-21 line, qPCR of 18S gene; format: cell-based; conditions: ACV 1 mg/L, 8 h post-contact of 2 mins
Text: as §1

[6] = system: BHK-21 line; assay: Model 2: cytotoxicity on the BHK-21 line, qPCR of 18S gene; format: cell-based; conditions: ACV 1 mg/L, 8 h post-contact of 2 mins
Text: as §1

[7] = system: BHK-21 line; assay: Model 3: cytotoxicity on the BHK-21 line, qPCR of 18S gene; format: cell-based; conditions: ACV 1 mg/L, 8 h post-contact of 2 mins
Text: as §1

[8] = system: BHK-21 line; assay: Model 4: cytotoxicity on the BHK-21 line, qPCR of 18S gene; format: cell-based; conditions: ACV 10^3 mg/L, 8 h post-contact of 2 mins
Text: as §1

[9] = system: immature erythrocytes (reticulocytes)
Procedure: The morbidity, the mortality, the weight of the animals and the clinical parameters (temperature, skin, hair, eyes, mucous membranes, secretions and excretions, respiratory and neurological function, gait and posture) were noted. 36 h to 48 h after the second treatment, the blood of the animals was collected and analyzed in flow cytometry (toxicity control: reduction of the proportion of immature erythrocytes (CD-71-positive). The proportion of micro-nucleated immature erythrocytes (reticulocytes) was evaluated on 4,000 observations per blood sample. Each rat population (n=10) for each tested substance represents 40,000 observations (Table 5).

[10] = system: chorioallantoic membrane of a fertilized hen egg; assay: Ocular irritation test HET-CAM
Procedure: The ocular irritation test used was the substitution test HET-CAM (Hen's Egg Test—Chorioallantoic Membrane), published in the Official Journal dated 26 Dec. 1996. It is recommended by ICCVAM.
At 0.5, 2 and 5 mins post-contact, the three following criteria are observed and scored: hemorrhage, coagulation and hyperemia.

[11] = control Line + (PBS + HSV), ACV 1 mg/L, 8 h post-contact of 2 mins
[12] = 100 mg/kg intraperitoneal, female
[13] = 100 mg/kg intraperitoneal, male
[14] = 150 mg/kg intraperitoneal, female
[15] = 150 mg/kg intraperitoneal, male

Nc1nc2c(ncn2COCCO)c(=O)[nH]1 [ACV, acyclovir]
Reduction of the HSV-1 replication at t 8 h ([1]; contact 2 min, ACV 10^3 μg/L): −12%
HSV (%), replication of HSV-1 by qPCR [1, 11]: 76 (1) %
Reduction of the HSV-1 replication at t 8 h ([2]; contact 2 min, ACV 10^3 μg/L): −1%
HSV (%), replication of HSV-1 by qPCR [2, 11]: 61 (1) %
Reduction of the HSV-1 replication at t 8 h ([3]; contact 2 min, ACV 10^3 μg/L): −6%
HSV (%), replication of HSV-1 by qPCR [3, 11]: 86 (1) %
Reduction of the HSV-1 replication at t 8 h ([4]; contact 2 min, [ACV]: 1 g/L): −52^# %
HSV (%), replication of HSV-1 by qPCR ([4]; control Line + (PBS + HSV), ACV 10^3 mg/L, 8 h post-contact of 2 mins): 54%
18S (%), multiplication of the BHK-21 line by qPCR ([5]; control Line + (PBS + HSV)): 118 (1) %
18S (%), multiplication of the BHK-21 line by qPCR ([5]; control Line + (PBS − HSV)): 108 (1) %
18S (%), multiplication of the BHK-21 line by qPCR ([6]; control Line + (PBS + HSV)): 62 (1) %
18S (%), multiplication of the BHK-21 line by qPCR ([6]; control Line + (PBS − HSV)): 57 (1) %
18S (%), multiplication of the BHK-21 line by qPCR ([7]; control Line + (PBS + HSV)): 92 (1) %
18S (%), multiplication of the BHK-21 line by qPCR ([7]; control Line + (PBS − HSV)): 111 (1) %
18S (%), multiplication of the BHK-21 line by qPCR ([8]; control Line + (PBS + HSV)): 111%
18S (%), multiplication of the BHK-21 line by qPCR ([8]; control Line + (PBS − HSV)): 97%

O=P1(N(CCCl)CCCl)NCCCO1 (stereo not shown) [Cyclophosphamide, cyclophosphamide]
Micro-nucleated reticulocytes (%) ([9]; 5 mg/kg intravenous, female): 0.40 ± 0.13%
Reticulocytes (%) ([9]; 5 mg/kg intravenous, female): 2.41 ± 0.54%
Micro-nucleated reticulocytes (%) ([9]; 5 mg/kg intravenous, male): 0.56 ± 0.17%
Reticulocytes (%) ([9]; 5 mg/kg intravenous, male): 3.99 ± 0.49%
Micro-nucleated reticulocytes (%) ([9]; 10 mg/kg intravenous, female): 1.02 ± 0.26 %
Reticulocytes (%) ([9]; 10 mg/kg intravenous, female): 1.30 ± 0.43%
Micro-nucleated reticulocytes (%) ([9]; 10 mg/kg intravenous, male): 1.62 ± 0.29%
Reticulocytes (%) ([9]; 10 mg/kg intravenous, male): 1.95 ± 0.59%

CCCCCCCCCCCCOS(=O)(=O)[O-].[Na+] [1% SDS, sodium dodecyl sulfate]
IS of the positive substances of reference [10]: 10±2

[Na+].[OH-] [NaOH 0.1M, NaOH]
IS of the positive substances of reference [10]: 15±3

CCOS(C)(=O)=O [Methanesulfonate, ethyl methanesulfonate]
Micro-nucleated reticulocytes (%) [9, 12]: 0.48 ± 0.16 %
Reticulocytes (%) [9, 12]: 1.86 ± 0.25%
Micro-nucleated reticulocytes (%) [9, 13]: 0.68 ± 0.35 %
Reticulocytes (%) [9, 13]: 1.41 ± 0.32%
Micro-nucleated reticulocytes (%) [9, 14]: 0.59 ± 0.26 %
Reticulocytes (%) [9, 14]: 0.45 ± 0.33%
Micro-nucleated reticulocytes (%) [9, 15]: 0.81 ± 0.48 %
Reticulocytes (%) [9, 15]: 1.33 ± 0.34%
